Tested on: 695427-040-R-J1-PDC complex spheroids, viability percent T/C
Experiment: Anticancer human tumor 695427-040-R-J1-PDC patient-derived colon adenocarcinoma cell line growth inhibition [GQUAD]
Details: for IC50: curve of first compound; for viability, T/C: stronger effect = lower value
From the text: DNA G-quadruplex Stabilizer Agents in Combinations in Complex Spheroids
A high-throughput screen of multi-cell type tumor spheroids was designed to identify active combinations of DNA G-quadruplex stabilizer agents and targeted small molecules. Complex spheroids include a stromal component modeled by human endothelial cells (HUVEC) and fibroblasts modeled by human mesenchymal stem cells (MSCs). The concentration ranges selected for each drug and investigational agent were based upon clinically achievable concentrations if the clinical Cmax of the agent was known.
Compounds. The drugs and investigational agents: pidnarulex (CX-5461; NSC782164), APTO-253 (NSC789042), BRACO-19 (NSC847499), peposertib (NSC802822), ceralasertib (NSC780249), elimusertib (NSC800525), camonsertib (NSC841442), AZD-1390 (NSC803789), olaparib (NSC753686), talazoparib (NSC767125), ART-558 (NSC835418), sotorasib (NSC818433), MRTX-1133 (NSC836407), SN-38 (NSC673596), topotecan (NSC609699), etoposide (NSC141540), doxorubicin (NSC123127), gemcitabine (NSC613327), 5-fluorouracil (NSC19893), paclitaxel (NSC125973), vemurafenib (NSC761431), panobinostat (NSC761190), R-306465 (JNJ-16241199; NSC773264), adavosertib (NSC754352), TP-3654 (NSC805149), carboplatin (NSC241240), KSQ-4279 (NSC840948), and staurosporine (NSC755774) were obtained from the National Cancer Institute (NCI) Developmental Therapeutics Program Chemical Repository (34). The FDA-approved anticancer drug set is available from the NCI Developmental Therapeutics Program. […] The stock solutions were prepared in dimethyl sulfoxide (DMSO, Sigma-Aldrich, St. Louis, MO, cat. D2650) at 800-fold the tested concentration and stored at -70 degrees C prior to their use. All drugs and investigational agents were tested over a range starting from a high concentration at or near the clinical Cmax and decreasing in half-log increments. If the clinical Cmax for an agent had not been determined, the highest concentration tested was 10 microM.
2.3 Cell Culture. All cells were maintained in an incubator at 37 degrees C and 5% CO2 with 95% humidity. The PDC lines were cultured according to standard operating procedures established by the NCI PDMR. All PDCs were thawed and cultured in Matrigel-coated flasks prepared with a working solution of 1X Ham's F-12 nutrient mix, without supplementation (Invitrogen, cat. 11765054), 100 U/mL penicillin-streptomycin (Invitrogen, cat. 15140122), and 2.5% Matrigel (Corning Inc., cat. 354248) for the first three passages. The 857933-349-R-J2-PDC line was cultured in 6C/Colon 1B media, which includes advanced DMEM/F-12 (Thermo Fisher Scientific, cat. 12634028), 10 mM HEPES (Thermo Fisher Scientific, cat. 15630080), 1X GlutaMAX supplement (Thermo Fisher Scientific, cat. 35050061), 0.1 mg/mL primocin (InvivoGen, cat. ant-pm-2), 10% defined fetal bovine serum, heat inactivated (HyClone Laboratories Inc., cat. SH30070.03HI), 50% L-WRN conditioned media (ATCC, cat. CRL-3276), 1.25 mM N-Acetyl-L-cysteine (Sigma-Aldrich, cat. A9165), 10 mM nicotinamide (Sigma-Aldrich, cat. N0636), 1X B-27 supplement (Thermo Fisher Scientific, cat. 17504044), 1X N-2 supplement (Thermo Fisher Scientific, cat. 17502048), 10 microM Y-27632 dihydrochloride (Tocris Bioscience, cat. 1254), and 50 ng/mL human EGF recombinant protein (Thermo Fisher Scientific, cat. PHG0311). The 485176-168-R4-J1-PDC line was cultured in Panc media, which includes all 6C/Colon 1B media components plus 100 ng/mL human FGF-10 (Thermo Fisher Scientific, cat. 100-26), 500 nM SB-431542 (Selleckchem, cat. S1067), and gastrin (Tocris, cat. 3006).
[…]

[1] = second compound 0.0316 µM, first compound 0.0316 µM
[2] = second compound 0.0316 µM, first compound 0.1 µM
[3] = second compound 0.0316 µM, first compound 0.316 µM
[4] = second compound 0.0316 µM, first compound 1 µM
[5] = second compound 0.0316 µM, first compound 3.16 µM
[6] = second compound 0.0316 µM, first compound 10 µM
[7] = second compound 0.1 µM, first compound 0.0316 µM
[8] = second compound 0.1 µM, first compound 0.1 µM
[9] = second compound 0.1 µM, first compound 0.316 µM
[10] = second compound 0.1 µM, first compound 1 µM
[11] = second compound 0.1 µM, first compound 3.16 µM
[12] = second compound 0.1 µM, first compound 10 µM
[13] = second compound 0.316 µM, first compound 0.0316 µM
[14] = second compound 0.316 µM, first compound 0.1 µM
[15] = second compound 0.316 µM, first compound 0.316 µM
[16] = second compound 0.316 µM, first compound 1 µM
[17] = second compound 0.316 µM, first compound 3.16 µM
[18] = second compound 0.316 µM, first compound 10 µM
[19] = second compound 1 µM, first compound 0.0316 µM
[20] = second compound 1 µM, first compound 0.1 µM
[21] = second compound 1 µM, first compound 0.316 µM
[22] = second compound 1 µM, first compound 1 µM
[23] = second compound 1 µM, first compound 3.16 µM
[24] = second compound 1 µM, first compound 10 µM
[25] = second compound 3.16 µM, first compound 0.0316 µM
[26] = second compound 3.16 µM, first compound 0.1 µM
[27] = second compound 3.16 µM, first compound 0.316 µM
[28] = second compound 3.16 µM, first compound 1 µM
[29] = second compound 3.16 µM, first compound 3.16 µM
[30] = second compound 3.16 µM, first compound 10 µM
[31] = second compound 10 µM, first compound 0.0316 µM
[32] = second compound 10 µM, first compound 0.1 µM
[33] = second compound 10 µM, first compound 0.316 µM
[34] = second compound 10 µM, first compound 1 µM
[35] = second compound 10 µM, first compound 3.16 µM
[36] = second compound 10 µM, first compound 10 µM
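Note: spheroids exposed to compounds for seven days before readout.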

**Q.** `COc1cc(C2c3cc4c(cc3C(OC3OC5COC(C)OC5C(O)C3O)C3COC(=O)C23)OCO4)cc(OC)c1O` (centres undefined) + Cc1cnc(CNC(=O)c2c(=O)c3ccc(N4CCCN(C)CC4)nc3n3c2sc2ccccc23)cn1 was tested. Which IC50 (second compound 0.0316 µM) did it give?
**A.** > 10000 nM

**Q.** And the IC50 (second compound 0.1 µM)?
**A.** > 10000 nM

**Q.** And the IC50 (second compound 0.316 µM)?
**A.** > 10000 nM

**Q.** What about the IC50 (second compound 1 µM) of the same molecule?
**A.** > 10000 nM

**Q.** What about the IC50 (second compound 3.16 µM) of the same molecule?
**A.** < 31.6 nM

**Q.** What about the IC50 (second compound 10 µM) of the same molecule?
**A.** < 31.6 nM

**Q.** And the viability, T/C [1]?
**A.** 87.3%

**Q.** What about the viability, T/C [2] of the same molecule?
**A.** 94.9%

**Q.** And the viability, T/C [3]?
**A.** 92.7%

**Q.** And the viability, T/C [4]?
**A.** 54.4%

**Q.** And the viability, T/C [5]?
**A.** 64.1%

**Q.** And the viability, T/C [6]?
**A.** 60.3%

**Q.** What about the viability, T/C [7] of the same molecule?
**A.** 84.8%

**Q.** What about the viability, T/C [8] of the same molecule?
**A.** 79.2%

**Q.** And the viability, T/C [9]?
**A.** 70.3%

**Q.** And the viability, T/C [10]?
**A.** 62.9%

**Q.** What about the viability, T/C [11] of the same molecule?
**A.** 75.5%

**Q.** What about the viability, T/C [12] of the same molecule?
**A.** 65.2%

**Q.** And the viability, T/C [13]?
**A.** 71.3%

**Q.** And the viability, T/C [14]?
**A.** 79.2%

**Q.** What about the viability, T/C [15] of the same molecule?
**A.** 70.5%

**Q.** What about the viability, T/C [16] of the same molecule?
**A.** 63%

**Q.** And the viability, T/C [17]?
**A.** 73%

**Q.** And the viability, T/C [18]?
**A.** 69.7%

**Q.** What about the viability, T/C [19] of the same molecule?
**A.** 47.5%

**Q.** What about the viability, T/C [20] of the same molecule?
**A.** 74.7%

**Q.** And the viability, T/C [21]?
**A.** 71.3%

**Q.** What about the viability, T/C [22] of the same molecule?
**A.** 59.8%

**Q.** And the viability, T/C [23]?
**A.** 70%

**Q.** What about the viability, T/C [24] of the same molecule?
**A.** 55.7%

**Q.** What about the viability, T/C [25] of the same molecule?
**A.** 33.4%

**Q.** What about the viability, T/C [26] of the same molecule?
**A.** 50.7%

**Q.** And the viability, T/C [27]?
**A.** 46.3%

**Q.** And the viability, T/C [28]?
**A.** 50%

**Q.** And the viability, T/C [29]?
**A.** 50.9%

**Q.** And the viability, T/C [30]?
**A.** 45.7%

**Q.** What about the viability, T/C [31] of the same molecule?
**A.** 38.8%

**Q.** What about the viability, T/C [32] of the same molecule?
**A.** 34.7%

**Q.** And the viability, T/C [33]?
**A.** 41.8%

**Q.** And the viability, T/C [34]?
**A.** 45.4%

**Q.** What about the viability, T/C [35] of the same molecule?
**A.** 56%

**Q.** And the viability, T/C [36]?
**A.** 36.7%

**Q.** `COc1cccc2c1C(=O)c1c(O)c3c(c(O)c1C2=O)CC(O)(C(=O)CO)CC3OC1CC(N)C(O)C(C)O1` (centres undefined) + Cc1cnc(CNC(=O)c2c(=O)c3ccc(N4CCCN(C)CC4)nc3n3c2sc2ccccc23)cn1 was tested. Which IC50 (second compound 0.0316 µM) did it give?
**A.** 1510 nM

**Q.** And the IC50 (second compound 0.1 µM)?
**A.** 1990 nM

**Q.** And the IC50 (second compound 0.316 µM)?
**A.** 1920 nM

**Q.** And the IC50 (second compound 1 µM)?
**A.** 557 nM

**Q.** And the IC50 (second compound 3.16 µM)?
**A.** < 31.6 nM

**Q.** What about the IC50 (second compound 10 µM) of the same molecule?
**A.** < 31.6 nM

**Q.** What about the viability, T/C [1] of the same molecule?
**A.** 96.5%

**Q.** What about the viability, T/C [2] of the same molecule?
**A.** 68%

**Q.** And the viability, T/C [3]?
**A.** 70%

**Q.** What about the viability, T/C [4] of the same molecule?
**A.** 56.8%

**Q.** And the viability, T/C [5]?
**A.** 38.7%

**Q.** What about the viability, T/C [6] of the same molecule?
**A.** 40.4%

**Q.** And the viability, T/C [7]?
**A.** 86.3%

**Q.** And the viability, T/C [8]?
**A.** 70.6%

**Q.** What about the viability, T/C [9] of the same molecule?
**A.** 85.3%

**Q.** What about the viability, T/C [10] of the same molecule?
**A.** 62.3%

**Q.** What about the viability, T/C [11] of the same molecule?
**A.** 45%

**Q.** What about the viability, T/C [12] of the same molecule?
**A.** 38.4%

**Q.** And the viability, T/C [13]?
**A.** 72.2%

**Q.** And the viability, T/C [14]?
**A.** 69.8%

**Q.** And the viability, T/C [15]?
**A.** 64.9%

**Q.** And the viability, T/C [16]?
**A.** 60.4%

**Q.** What about the viability, T/C [17] of the same molecule?
**A.** 42.4%

**Q.** What about the viability, T/C [18] of the same molecule?
**A.** 34.4%

**Q.** And the viability, T/C [19]?
**A.** 60.2%

**Q.** And the viability, T/C [20]?
**A.** 56.8%

**Q.** And the viability, T/C [21]?
**A.** 59.6%

**Q.** And the viability, T/C [22]?
**A.** 41%

**Q.** And the viability, T/C [23]?
**A.** 34.2%

**Q.** And the viability, T/C [24]?
**A.** 24.2%

**Q.** And the viability, T/C [25]?
**A.** 43.8%

**Q.** And the viability, T/C [26]?
**A.** 55.6%

**Q.** And the viability, T/C [27]?
**A.** 48%

**Q.** And the viability, T/C [28]?
**A.** 28.1%

**Q.** What about the viability, T/C [29] of the same molecule?
**A.** 28.9%

**Q.** And the viability, T/C [30]?
**A.** 14.9%

**Q.** And the viability, T/C [31]?
**A.** 32.1%

**Q.** And the viability, T/C [32]?
**A.** 45%

**Q.** What about the viability, T/C [33] of the same molecule?
**A.** 43.5%

**Q.** And the viability, T/C [34]?
**A.** 26.4%

**Q.** And the viability, T/C [35]?
**A.** 20.2%

**Q.** What about the viability, T/C [36] of the same molecule?
**A.** 3.89%
